Where a name gives a salt, the structure may show the parent alone.
Each compound was assayed on ATGL-KO iPSCs (assay: High throughput iPSC chemical screening, Oil Red O (ORO) lipid accumulation). Settings: not given.
Format: cell-based, mouse
Throughout, for Z-score: test concentration or dose not given here.

Compound	Z-score
C[C@]12CC[C@H](O)C[C@@H]1CC[C@@H]1[C@@H]2CC[C@]2(C)C(=O)CC[C@@H]12 [Epiandrosterone]	−0.835
CNC(=O)Oc1ccc2c(c1)[C@]1(C)CCN(C)[C@@H]1N2C.CNC(=O)Oc1ccc2c(c1)[C@]1(C)CCN(C)[C@@H]1N2C.O=S(=O)(O)O [Eserine sulfate, physostigmine sulfate]	0.899

Same assay, conditions: glycolytic switch compounds

Compound	Rank in normalized ORO score from screen
O=c1c2ccccc2[se]n1-c1ccccc1 [Ebselen]	52
C#C[C@]1(OC(C)=O)CC[C@H]2[C@@H]3CCC4=C[C@@H](OC(C)=O)CC[C@@H]4[C@H]3CC[C@@]21C [Ethynodiol diacetate]	61
CC(NCCC(c1ccccc1)c1ccccc1)c1ccccc1 (centres unmarked) [Fendiline hydrochloride, reference compound]	1

Same assay, conditions: normalized ORO level vs DMSO-treated cells; compound present during 7 days differentiation, 96-well; negative = decrease in lipid accumulation

Compound	Z-score
C[C@H]1c2cccc(O)c2C(=O)C2=C(O)[C@]3(O)C(=O)C(C(N)=O)=C(O)[C@@H](N(C)C)[C@@H]3[C@@H](O)[C@@H]21 [Doxycycline hydrochloride]	2.356
CN(C)CCOC(C)(c1ccccc1)c1ccccn1 (centres unmarked) [Doxylamine succinate]	0.07172
CCN(CC)CCOC(=O)C(c1ccccc1)C1CCCCC1 (centres unmarked) [Drofenine hydrochloride]	−0.0455
O=C(CCCN1CC=C(n2c(=O)[nH]c3ccccc32)CC1)c1ccc(F)cc1 [Droperidol]	−0.5996
COc1c2c(nc3ccccc13)OC(C(C)(O)CO)C2 (centres unmarked) [Dubinidine]	0.2385
CCCCOc1ccc(C(=O)CCN2CCCCC2)cc1 [Dyclonine hydrochloride]	−1.4276
CC(=O)[C@H]1CC[C@H]2[C@@H]3C=CC4=CC(=O)CC[C@@]4(C)[C@@H]3CC[C@]12C [Dydrogesterone]	−0.7044
O=c1c2ccccc2[se]n1-c1ccccc1 [Ebselen]	−1.5273
Clc1ccc(COC(Cn2ccnc2)c2ccc(Cl)cc2Cl)cc1 (centres unmarked) [Econazole nitrate]	−0.8488
CC[N+](C)(C)c1cccc(O)c1 [Edrophonium chloride]	0.4533
Cc1c2ccncc2c(C)c2c1[nH]c1ccccc12 [Ellipticine]	36.711
CC[C@H]1CN2CCc3cc(OC)c(OC)cc3[C@@H]2C[C@@H]1C[C@H]1NCCc2cc(OC)c(OC)cc21 [Emetine dihydrochloride]	32.7653
CCOC(=O)[C@H](CCc1ccccc1)N[C@@H](C)C(=O)N1CCC[C@H]1C(=O)O [Enalapril maleate]	0.1645
C=CCOC(Cn1ccnc1)c1ccc(Cl)cc1Cl (centres unmarked) [Enilconazole]	−0.0014
CCn1cc(C(=O)O)c(=O)c2cc(F)c(N3CCNCC3)nc21 [Enoxacin]	−0.7386
Oc1cc(O)c2c(c1)O[C@H](c1ccc(O)c(O)c1)[C@H](O)C2 [Epicatechin-(−)]	0.9251
COc1cc(C)nc(-n2nc(C)cc2OC)n1 [Epirizole]	−0.7031
C[C@]12C[C@H]3S[C@H]3C[C@@H]1CC[C@@H]1[C@@H]2CC[C@]2(C)[C@@H](O)CC[C@@H]12 [Epitiostanol]	−1.7564
CC[C@]12CCCN3CCc4c(n(c5ccccc45)[C@](O)(C(=O)OC)C1)[C@@H]32 [Epivincamine]	0.1161
C[C@]12CC[C@H]3C(=CCc4cc(O)ccc43)[C@@H]1CCC2=O [Equilin]	−1.0652
CC(C)C[C@H]1C(=O)N2CCC[C@H]2[C@]2(O)O[C@](NC(=O)[C@@H]3C=C4c5cccc6[nH]cc(c56)C[C@H]4N(C)C3)(C(C)C)C(=O)N12 [Ergocryptine-alpha]	−0.2816
CC[C@H]1OC(=O)[C@H](C)[C@@H](O[C@H]2C[C@@](C)(OC)[C@@H](O)[C@H](C)O2)[C@H](C)[C@@H](O[C@@H]2O[C@H](C)C[C@H](N(C)C)[C@H]2O)[C@](C)(O)C[C@@H](C)C(=O)[C@H](C)[C@@H](O)[C@]1(C)O [Erythromycin]	1.131
O=c1ccc2cc(O)c(O)cc2o1 [Esculetin]	−0.9295
O=c1ccc2cc(O[C@@H]3O[C@H](CO)[C@@H](O)[C@H](O)[C@H]3O)c(O)cc2o1 [Esculin Hydrate]	−1.2808
C[C@]12CC[C@@H]3c4ccc(O)cc4CC[C@H]3[C@@H]1CC[C@@H]2O [Estradiol-17 beta]	−0.9541

Compound	Z-score
C[C@]12CC[C@@H]3c4ccc(O)cc4CC[C@H]3[C@@H]1C[C@@H](O)[C@@H]2O [Estriol]	0.06999
C[C@]12CC[C@@H]3c4ccc(O)cc4CC[C@H]3[C@@H]1CCC2=O [Estrone]	−1.8166
C[C@]12CC[C@@H]3c4ccc(OS(=O)(=O)O)cc4CC[C@H]3[C@@H]1CCC2=O [Estropipate]	−1.7711
O=C(Cn1ccnc1[N+](=O)[O-])NCCO [Etanidazole]	0.6681
C=C(CC)C(=O)c1ccc(OCC(=O)O)c(Cl)c1Cl [Ethacrynic acid]	−0.302
CC[C@@H](CO)NCCN[C@@H](CC)CO [Ethambutol dihydrochloride]	−0.6303
CCN(CC)C(=O)c1ccc(O)c(OC)c1 [Ethamivan]	−0.565
O=S(=O)(O)c1cc(O)ccc1O [Ethamsylate]	0.04738
CCOc1ccc(Cc2nccc3cc(OCC)c(OCC)cc23)cc1OCC [Ethaverine hydrochloride]	17.3528
CCc1cc(C(N)=S)ccn1 [Ethionamide]	−0.9932
C#C[C@]1(O)CC[C@H]2[C@@H]3CCC4=CC(=O)CC[C@]4(C)[C@H]3CC[C@@]21C [Ethisterone]	−0.2541
CCN(CC)C(C)CN1c2ccccc2Sc2ccccc21 (centres unmarked) [Ethopropazine hydrochloride]	−1.7382
CCC1(C)CC(=O)NC1=O (centres unmarked) [Ethosuximide]	1.076
CCN1C(=O)NC(c2ccccc2)C1=O (centres unmarked) [Ethotoin]	−0.7327
CCOc1ccc2c(c1)C(C)=CC(C)(C)N2 [Ethoxyquin]	−0.0471
C#C[C@]1(OC(C)=O)CC[C@H]2[C@@H]3CCC4=C[C@@H](OC(C)=O)CC[C@@H]4[C@H]3CC[C@@]21C [Ethynodiol diacetate]	−1.4458
C#C[C@]1(O)CC[C@H]2[C@@H]3CCc4cc(OC)ccc4[C@H]3CC[C@@]21C [Ethynylestradiol 3-methyl ether]	−0.93
CC(O)(P(=O)(O)O)P(=O)(O)O [Etidronic acid, disodium salt]	−0.1368
CCc1cccc(CC)c1NC(=O)CN(CC(=O)O)CC(=O)O [Etifenin]	−1.0427
CCNCC(O)c1cccc(O)c1 (centres unmarked) [Etilefrine hydrochloride]	0.1398
CCc1cccc2c3c([nH]c12)C(CC)(CC(=O)O)OCC3 (centres unmarked) [Etodolac]	1.6287
Cn1c(=O)c2c(ncn2CCO)n(C)c1=O [Etofylline]	−0.8406
CCOC(=O)c1cncn1[C@H](C)c1ccccc1 [Etomidate]	0.2274
COc1cc([C@@H]2c3cc4c(cc3[C@@H](O[C@@H]3O[C@@H]5CO[C@@H](C)O[C@H]5[C@H](O)[C@H]3O)[C@H]3COC(=O)[C@H]23)OCO4)cc(OC)c1O [Etoposide]	39.4033
CC1CC(OC(=O)C(O)c2ccccc2)CC(C)(C)N1C (centres unmarked) [Eucatropine hydrochloride]	0.9133

Compound	Z-score
COc1c2ccoc2nc2c(OC)c(OCC(O)C(C)(C)O)ccc12 (centres unmarked) [Evoxine]	−0.3336
NC(N)=Nc1nc(CSCCC(N)=NS(N)(=O)=O)cs1 [Famotidine]	−1.1457
CC(C)c1c(CN(C)C(C)Cc2ccccc2)n(C)n(-c2ccccc2)c1=O (centres unmarked) [Famprofazone]	0.6911
O=C(O)Cc1ccc(-c2ccccc2)cc1 [Felbinac]	−0.9529
CCOC(=O)C1=C(C)NC(C)=C(C(=O)OC)C1c1cccc(Cl)c1Cl (centres unmarked) [Felodipine]	1.337
COC(=O)Nc1nc2ccc(Sc3ccccc3)cc2[nH]1 [Fenbendazole]	16.3822
O=C(O)CCC(=O)c1ccc(-c2ccccc2)cc1 [Fenbufen]	−0.3877
CC(NCCC(c1ccccc1)c1ccccc1)c1ccccc1 (centres unmarked) [Fendiline hydrochloride, reference compound]	−2.53
CC(C)OC(=O)C(C)(C)Oc1ccc(C(=O)c2ccc(Cl)cc2)cc1 [Fenofibrate]	−1.6051
CC(C(=O)O)c1cccc(Oc2ccccc2)c1 (centres unmarked) [Fenoprofen calcium salt dihydrate]	−0.4668
CC(Cc1ccc(O)cc1)NCC(O)c1cc(O)cc(O)c1 (centres unmarked) [Fenoterol hydrobromide]	−0.7445
O=C1NCC2(CCN(CCc3ccccc3)CC2)O1 [Fenspiride hydrochloride]	0.2827
COc1cc(C(=O)OC2CC3CCC(C2)N3C)ccc1O (centres unmarked) [Fillalbin]	0.7621
CC(C)(C)NC(=O)[C@H]1CC[C@H]2[C@@H]3CC[C@H]4NC(=O)C=C[C@]4(C)[C@H]3CC[C@]12C [Finasteride]	1.067
O=C(COc1ccc(Cl)cc1)N1CCN(Cc2ccc3c(c2)OCO3)CC1 [Fipexide hydrochloride]	−0.9747
Cc1c(-c2ccccc2)oc2c(C(=O)OCCN3CCCCC3)cccc2c1=O [Flavoxate hydrochloride]	0.3535
O=C(NCC1CCCCN1)c1cc(OCC(F)(F)F)ccc1OCC(F)(F)F (centres unmarked) [Flecainide acetate]	−0.9948
CS(=O)(=O)c1ccc([C@@H](O)[C@@H](CF)NC(=O)C(Cl)Cl)cc1 [Florfenicol]	31.4352
Cc1onc(-c2c(F)cccc2Cl)c1C(=O)N[C@@H]1C(=O)N2[C@@H]1SC(C)(C)[C@@H]2C(=O)O [Flucloxacillin sodium]	0.5241
Nc1[nH]c(=O)ncc1F [Flucytosine]	−0.8908
CC(=O)OCC(=O)[C@@]1(O)CC[C@H]2[C@@H]3CCC4=CC(=O)CC[C@]4(C)[C@@]3(F)[C@@H](O)C[C@@]21C [Fludrocortisone acetate]	−0.9911
O=C(O)c1ccccc1Nc1cccc(C(F)(F)F)c1 [Flufenamic acid]	−0.8139
CC1CCc2cc(F)cc3c(=O)c(C(=O)O)cn1c23 (centres unmarked) [Flumequine]	−0.8648
Fc1ccc(C(c2ccc(F)cc2)N2CCN(C/C=C/c3ccccc3)CC2)cc1 [Flunarizine dihydrochloride]	0.2207
CC1(C)O[C@@H]2C[C@H]3[C@@H]4C[C@H](F)C5=CC(=O)C=C[C@]5(C)[C@H]4[C@@H](O)C[C@]3(C)[C@]2(C(=O)CO)O1 [Flunisolide]	0.2241
